Experiment [1] deals with T1, recombinant human Lp-PLA2 (Homo sapiens, UniProt Q13093).
T1 sequence (Q13093 22-441): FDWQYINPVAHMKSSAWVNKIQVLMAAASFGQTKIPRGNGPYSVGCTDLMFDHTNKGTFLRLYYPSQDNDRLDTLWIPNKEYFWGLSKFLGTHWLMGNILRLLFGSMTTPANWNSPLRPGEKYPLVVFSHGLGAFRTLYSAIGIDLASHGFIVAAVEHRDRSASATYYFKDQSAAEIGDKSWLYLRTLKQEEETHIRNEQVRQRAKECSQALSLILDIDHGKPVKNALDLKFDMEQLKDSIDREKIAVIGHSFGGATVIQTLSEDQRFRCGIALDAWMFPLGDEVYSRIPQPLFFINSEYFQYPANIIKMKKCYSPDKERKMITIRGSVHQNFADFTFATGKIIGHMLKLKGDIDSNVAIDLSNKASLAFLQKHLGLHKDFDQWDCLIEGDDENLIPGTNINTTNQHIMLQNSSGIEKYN
Nature of the experiment: Recombinant human Lp-PLA2 assay (rhLp-PLA2, PED6 assay). The experiment is classed as biochemical. The settings on record: recombinant human Lp-PLA2, PED6 substrate; upper limit for pIC50 in this assay is 9.3. A digest of the protocol:
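Compound preincubated 30 min with rhLp-PLA2 (4 nM or 110 pM) in 50 mM HEPES pH 7.4, 150 mM NaCl, 1 mM CHAPS, then PED6 substrate (4 μM or 5 μM) added. After 20 min at room temperature protected from light, fluorescence read at ex 480/em 540. pIC50 derived from serial-dilution curves.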

In the next experiment the target is T2, Lp-PLA2 in human plasma (Homo sapiens, UniProt Q13093).
T2 construct: This assay may detect the activity of Lp-PLA2 in human plasma; from tissue; host or cells: pooled human plasma
T2 sequence (Q13093 22-441): T1 sequence (Q13093 22-441)
Nature of the experiment: Lp-PLA2 human plasma assay (Thio-PAF assay). The class given is biochemical. The settings on record: pooled human plasma, 2-thio-PAF substrate; read-out: pIC50 in the thio-PAF assay (converted). In short, it runs like this:
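Pooled human plasma preincubated 30 min with serially diluted compounds, then 2-thio-PAF substrate with CPM and NEM added in 50 mM HEPES pH 7.4, 150 mM NaCl, 1 mM CHAPS. TFA-quenched after 2 min, 40 min at RT, fluorescence ex 380/em 485; pIC50 from curve fit.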

Structures can show the parent of a compound that is named as a salt. A value given as a limit tells only on which side of the number the result lay.

Consider `CN1CCn2c1cc(OCc1cc(F)c(Oc3cncc(C(F)(F)F)c3)c(F)c1)nc2=O` [Example 147, 7-((3,5-difluoro-4-((5-(trifluoromethyl)pyridin-3-yl)oxy)benzyl)oxy)-1-methyl-2,3-dihydroimidazo[1,2-c]pyrimidin-5(1H)-one], for which the figures for the IC50 (in experiment [1]; on Lp-PLA2 in human plasma) were 1 nM and at most 100 nM, respectively.

Consider `Cc1cc(Oc2ccc(COc3cc4n(c(=O)n3)CCN4C)cc2F)ccc1C#N` [Example 149, 4-(2-fluoro-4-(((1-methyl-5-oxo-1,2,3,5-tetrahydroimidazo[1,2-c]pyrimidin-7-yl)oxy)methyl)phenoxy)-2-methylbenzonitrile], for which the IC50 in experiment [1] was at most 10 nM; at Lp-PLA2 in human plasma it was at most 1000 nM.

Consider `CN1CCn2c1cc(OCc1ccc(Oc3cc(C#N)cc(C(F)(F)F)c3)c(F)c1)nc2=O` [Example 150, 3-(2-fluoro-4-(((1-methyl-5-oxo-1,2,3,5-tetrahydroimidazo[1,2-c]pyrimidin-7-yl)oxy)methyl)phenoxy)-5-(trifluoromethyl)benzonitrile, trifluoroacetic acid salt], for which the IC50 in experiment [1] was at most 10 nM; at Lp-PLA2 in human plasma it was at most 100 nM.

With `CN1CCn2c1cc(OCc1ccc(Oc3cccc(C(F)(F)F)c3)c(C#N)c1)nc2=O` [Example E1, 5-(((1-methyl-5-oxo-1,2,3,5-tetrahydroimidazo[1,2-c]pyrimidin-7-yl)oxy)methyl)-2-(3-(trifluoromethyl)phenoxy)benzonitrile], the IC50 was at most 10 nM in experiment [1] and at most 100 nM at Lp-PLA2 in human plasma.

As to `CN1CCn2c1cc(OCc1cc(F)c(Oc3ccc(C(F)(F)F)nc3)c(F)c1)nc2=O` [Example E2, 7-((3,5-difluoro-4-((6-(trifluoromethyl)pyridin-3-yl)oxy)benzyl)oxy)-1-methyl-2,3-dihydroimidazo[1,2-c]pyrimidin-5(1H)-one], the values for the IC50 (in experiment [1]; at Lp-PLA2 in human plasma) were at most 10 nM and at most 1000 nM, respectively.

In the case of `CN1CCn2c1cc(OCc1ccc(Oc3ccc(C(F)(F)F)nc3)c(F)c1)nc2=O` [Example E3, 7-((3-fluoro-4-((6-(trifluoromethyl)pyridin-3-yl)oxy)benzyl)oxy)-1-methyl-2,3-dihydroimidazo[1,2-c]pyrimidin-5(1H)-one], the IC50 in experiment [1] was at most 10 nM; at Lp-PLA2 in human plasma it was at most 1000 nM.

As for `CN1CCn2c1cc(OCc1ccc(Oc3ccc(F)c(F)c3)c(F)c1)nc2=O` [Example E4, 7-((4-(3,4-difluorophenoxy)-3-fluorobenzyl)oxy)-1-methyl-2,3-dihydroimidazo[1,2-c]pyrimidin-5(1H)-one], the figures for the IC50 (in experiment [1]; at Lp-PLA2 in human plasma) were at most 1 nM and at most 100 nM, respectively.

For the compound `CN1CCn2c1cc(OCc1ccc(Oc3ccc(Cl)c(C(F)(F)F)c3)cc1)nc2=O` [Example E5, 7-((4-(4-chloro-3-(trifluoromethyl)phenoxy)benzyl)oxy)-1-methyl-2,3-dihydroimidazo[1,2-c]pyrimidin-5(1H)-one], the values for the IC50 (in experiment [1]; at Lp-PLA2 in human plasma) were at most 10 nM and at most 100 nM, respectively.

`CN1CCn2c1cc(OCCc1ccc(Oc3ccc(Cl)c(C(F)(F)F)c3)cc1)nc2=O` [Example E13, 7-(4-(4-chloro-3-(trifluoromethyl)phenoxy)phenethoxy)-1-methyl-2,3-dihydroimi-dazo[1,2-c]pyrimidin-5(1H)-one]: the results for the IC50 (in experiment [1]; on Lp-PLA2 in human plasma) were at most 10 nM and at most 1000 nM, respectively.

Take `CN1CCn2c1cc(OCc1ccc(Oc3ccc(F)c(Cl)c3)c(F)c1)nc2=O` [Example E15, 7-((4-(3-chloro-4-fluorophenoxy)-3-fluorobenzyl)oxy)-1-methyl-2,3-dihydroimida-zo[1,2-c]pyrimidin-5(1H)-one]: the figures for the IC50 (in experiment [1]; on Lp-PLA2 in human plasma) were at most 10 nM and at most 1000 nM, respectively.

Regarding `CN1CCn2c1cc(OCc1ccc(Oc3cccc(F)c3)c(C#N)c1)nc2=O` [Example E18, 2-(3-fluorophenoxy)-5-(((1-methyl-5-oxo-1,2,3,5-tetrahydroimidazo[1,2-c]pyrimidin-7-yl)oxy)methyl)benzonitrile], the IC50 was at most 10 nM in experiment [1] and at most 1000 nM on Lp-PLA2 in human plasma.

For the compound `CN1CCn2c1cc(OCc1ccc(Oc3cccc(C(F)(F)F)c3)c(F)c1)nc2=O` [Example E20, 7-((3-fluoro-4-(3-(trifluoromethyl)phenoxy)benzyl)oxy)-1-methy-2,3-dihydroimid-azo[1,2-c]pyrimidin-5(1H)-one], the IC50 was at most 10 nM in experiment [1] and at most 1000 nM at Lp-PLA2 in human plasma.

Turning to `CN1CCn2c1cc(OCc1ccc(Oc3ccc(C(F)(F)F)cc3)c(C#N)c1)nc2=O` [Example E24, 5-(((1-methyl-5-oxo-1,2,3,5-tetrahydroimidazo[1,2-c]pyrimidin-7-yl)oxy)methyl)-2-(4-(trifluoromethyl)phenoxy)benzonitrile, trifluoroacetic acid salt], the IC50 in experiment [1] was at most 10 nM; on Lp-PLA2 in human plasma it was at most 1000 nM.

Turning to `CN1CCn2c1cc(OCc1ccc(Oc3ccc(Cl)c(F)c3)cc1)nc2=O` [Example E25, 7-((4-(4-chloro-3-fluorophenoxy)benzyl)oxy)-1-methyl-2,3-dihydroimidazo[1,2-c]pyrimidin-5(1H)-one], the results for the IC50 (in experiment [1]; at Lp-PLA2 in human plasma) were at most 10 nM and at most 1000 nM, respectively.

Regarding `CN1CCn2c1cc(OCc1ccc(Oc3ccc(F)c(C(F)(F)F)c3)cc1)nc2=O` [Example E29, 7-((4-(4-fluoro-3-(trifluoromethyl)phenoxy)benzyl)oxy)-1-methyl-2,3-dihydroimid-azo[1,2-c]pyrimidin-5(1H)-one], the figures for the IC50 (in experiment [1]; on Lp-PLA2 in human plasma) were at most 10 nM and at most 1000 nM, respectively.

In the case of `CN1CCn2c1cc(OCc1ccc(Oc3ccc(F)c(F)c3)c(C#N)c1)nc2=O` [Example E34, 2-(3,4-difluorophenoxy)-5-(((1-methyl-5-oxo-1,2,3,5-tetrahydroimidazo[1,2-c]pyrimidin-7-yl)oxy)methyl)benzonitrile], the IC50 in experiment [1] is at most 10 nM; at Lp-PLA2 in human plasma, at most 100 nM.

For the compound `CN1CCn2c1cc(OCc1ccc(Oc3ccc(C(F)(F)F)cn3)c(C#N)c1)nc2=O` [Example E35, 5-(((1-methyl-5-oxo-1,2,3,5-tetrahydroimidazo[1,2-c]pyrimidin-7-yl)oxy)methyl)-2-((5-(trifluoromethyl)pyridin-2-yl)oxy)benzonitrile, trifluoroacetic acid salt], the IC50 in experiment [1] is at most 10 nM; on Lp-PLA2 in human plasma, at most 1000 nM.

In the case of `CN1CCn2c1cc(OCc1ccc(Oc3ccc(Cl)c(F)c3)c(C#N)c1)nc2=O` [Example E37, 2-(4-chloro-3-fluorophenoxy)-5-(((1-methyl-5-oxo-1,2,3,5-tetrahydroimidazo[1,2-c]pyrimidin-7-yl)oxy)methyl)benzonitrile, trifluoroacetic acid salt], the IC50 in experiment [1] is at most 10 nM; on Lp-PLA2 in human plasma, at most 1000 nM.

Take `CN1CCn2c1cc(OCc1ccc(Oc3cc(F)c(F)c(F)c3)c(C#N)c1)nc2=O` [Example E38, 5-(((1-methyl-5-oxo-1,2,3,5-tetrahydroimidazo[1,2-c]pyrimidin-7-yl)oxy)methyl)-2-(3,4,5-trifluorophenoxy)benzonitrile, trifluoroacetic acid salt]: the IC50 in experiment [1] was at most 10 nM; at Lp-PLA2 in human plasma, at most 1000 nM.

On to `CN1CCn2c1cc(OCc1ccc(Oc3ccc(Cl)c(Cl)c3)c(F)c1)nc2=O` [Example E41, 7-((4-(3,4-dichlorophenoxy)-3-fluorobenzyl)oxy)-1-methyl-2,3-dihydroimidazo[1,2-c]pyrimidin-5(1H)-one], for which the IC50 was at most 10 nM in experiment [1] and at most 1000 nM at Lp-PLA2 in human plasma.
